Data from patent US20050020643A1, “Pyridinyl amides and compositions thereof for use as fungicides” (priority 2002, published 2005).
Like-named read-outs stand apart in the source and are kept apart here. Marks after values point to notes of the source that are not given here.

Assays:
Type in all cases: in vivo
[1] = tested on: Erysiphe graminis f. sp. tritici; experiment: Test A: preventive control of wheat powdery mildew on wheat seedlings; design: concentration or dose not given beside the values; settings: sprayed day before inoculation, rated after 7 days, rate not given
Puccinia recondita = experiment: Test B: preventive control of wheat leaf rust on wheat seedlings; design: concentration or dose not given beside the values; settings: sprayed day before inoculation, rate not given
Phytophthora infestans [2] = tested on: Phytophthora infestans
Plasmopara viticola [3] = experiment: Test E: preventive control of grape downy mildew on grape seedlings
Phytophthora infestans [4] = experiment: whole plant or invertebrate; settings: for Test F disease control rating: 100 g/ha on potato seedlings, sprayed day after inoculation; for pest or weed control at 100 g/ha: Phytophthora infestans, in Solanum tuberosum, 120 h, read-out: Test F disease control rating
Plasmopara viticola [5] = experiment: Test G: curative control of grape downy mildew on grape seedlings (sprayed after inoculation); settings: sprayed day after inoculation
Pyricularia oryzae = settings: rice seedlings, sprayed day before inoculation; rate not given
[6] = tomato (or potato) seedlings, sprayed day before inoculation, rate not given
[7] = sprayed day before inoculation, rate not given

Structure (SMILES) | Test A disease control rating [1] [%] | Test B disease control rating (Puccinia recondita) [%] | Test D disease control rating (Phytophthora infestans [2]; [6]) [%] | Test E disease control rating (Plasmopara viticola [3]; [7]) [%] | Test F disease control rating (Phytophthora infestans [4]) [%] | Test G disease control rating (Plasmopara viticola [5]; rate not given) [%] | Test C disease control rating (Pyricularia oryzae) [%] | pest or weed control at 100 g/ha (Phytophthora infestans [4]) [%] | Test D disease control rating (Phytophthora infestans [2]; 100 g/ha on potato seedlings) | Test E disease control rating (Plasmopara viticola [3]; rate 100 g/ha (footnote *)) | Test G disease control rating (Plasmopara viticola [5]; rate 100 g/ha (footnote *))
Cc1cnc(C(C)NC(=O)c2c(Cl)ccnc2Cl)c(C)c1 (stereo not shown) [Compound 10] | 0 | 0 | 99 | 57 | 0 | 0 | – | – | – | – | –
CC(NC(=O)c1c(Cl)ccnc1Cl)c1ncc(Br)cc1Cl (racemic) [Compound 2, N-[1-(5-bromo-3-chloro-2-pyridinyl)ethyl]-2,4-dichloro-3-pyridinecarboxamide] | 0 | 19 | 100 | 100 | – | 100 | 0 | 93 | – | – | –
CC(NC(=O)c1c(Cl)ccnc1Cl)c1ncc(F)cc1Cl (stereo not shown) [Compound 5] | 0 | 0 | 100 | 70 | 100 | 99 | – | – | – | – | –
O=C(NCc1ncc(Cl)cc1Cl)c1c(Cl)ccnc1Cl [Compound 4, 2,4-Dichloro-N-[(3,5-dichloro-2-pyridinyl)methyl]-3-pyridinecarboxamide] | 0 | 9 | 100 | 70 | – | 100 | – | 100 | – | – | –
O=C(NCc1ncc(Cl)cc1Br)c1c(Cl)ccnc1Cl [Compound 6] | 0 | 0 | 100 | 70 | 100 | 99 | – | – | – | – | –
Cc1cc(Cl)c(C(=O)NCc2ncc(Br)cc2Cl)c(Cl)n1 [Compound 14, N-[(5-bromo-3-chloro-2-pyridinyl)methyl]-2,4-dichloro-6-methyl-3-pyridinecarboxamide] | 0 | 41 | 100 | 100 | – | 100 | – | 98 | – | – | –
O=C(NCc1ncc(I)cc1Cl)c1c(Cl)ccnc1Cl [Compound 12, N-[(3-chloro-5-iodo-2-pyridinyl)methyl]-2,4-dichloro-3-pyridinecarboxamide] | 0 | 0 | 100 | 59 | – | 63 | – | 98 | – | – | –
O=C(NCc1ncc(Cl)cc1I)c1c(Cl)ccnc1Cl [Compound 8] | 0 | 0 | 100 | 100 | 100 | 36 | – | – | – | – | –
Cc1cc(Cl)c(C(=O)NC(C)c2ncc(I)cc2Br)c(Cl)n1 (stereo not shown) [Compound 43] | 0 | – | 100 | 100 | 90 | 100 | – | – | – | – | –
Cc1cc(Cl)c(C(=O)NCc2ncc(I)cc2Br)c(Cl)n1 [Compound 42] | 0 | – | 100 | 100 | 93 | 100 | – | – | – | – | –
CC(NC(=O)c1c(Cl)ccnc1Cl)c1ncc(Br)cc1I (stereo not shown) [Compound 23] | 0 | – | 100 | 100 | 98 | 96 | – | – | – | – | –
CC(NC(=O)c1c(I)ccnc1Cl)c1ncc(Br)cc1Br (stereo not shown) [Compound 30] | 0 | – | 100 | 100 | 44 | 93 | – | – | – | – | –
CC(NC(=O)c1c(Br)ccnc1F)c1ncc(Br)cc1Br (stereo not shown) [Compound 39] | 0 | – | 100 | 100 | 100 | 100 | – | – | – | – | –
CC(NC(=O)c1c(Cl)ccnc1Cl)c1ncc(I)cc1Br (stereo not shown) [Compound 36] | 0 | – | – | – | 92 | – | – | – | 100# % | 100* % | 92* %
